Among the data in patent US9388123B2, “LSD1-selective inhibitor having lysine structure” (KYOTO UNIVERSITY, priority 2012, dated 2016) are melting point, GI50 and IC50 values, retold here.

Where a name gives a salt, the structure may show the parent alone.

One series relates to HeLa cells. Nature of the series: Cancer cell growth inhibition evaluation (MTT assay). In kind it is cell-based. The note with it: Homo sapiens; 48 hours with compound, MTT; read-out: GI50 (μM) HeLa. As to the method: (§1) Evaluation was performed by measuring the inhibitory activities of a compound against the growth of a human cervical cancer-derived cell line, HeLa cells, and a human neuroblastoma cell line, SH-SY5Y cells. Details thereof are shown below. […] This assay involves, as a principle thereof, measuring an absorbance at the time of color development through a reaction of NADH, which is contained in the mitochondria of viable cells, and MTT to measure the amount of NADH. The assay was performed by the following procedure. […] After the culture, a compound was added. Then, the cells were cultured for an additional 48 hours, and then 5 mg/ml MTT liquid was added at 10 μl per well. The cells were cultured for an additional 3 hours in a CO2 incubator. A solubilization solution (0.04 mol/l hydrochloric acid-isopropanol) was added at 100 μl per well and the mixture was vigorously vortexed. After that, an absorbance at 560 nm was measured with Fusion-aFP (manufactured by PerkinElmer) and the amount of viable cells was determined.
A general note: Tetrazolium assays rely on reduction of a dye to a coloured formazan, in cell work by metabolically active cells.

Another series concerns SH-SY5Y cells. The series is described as above. In kind it is cell-based. To be noted: Homo sapiens, MTT, read-out: GI50 (μM) SH-SY5Y. As to the method: as §1
The next series deals with T1, LSD1 (Homo sapiens, UniProt O60341).
T1 construct: five histidine residues added to the N-terminus of full-length LSD1 (1-851aa); 5xHis (five histidine residues) (N); made in house; host or cells: Escherichia coli
Briefly: LSD1 inhibition test (peroxidase-coupled absorbance assay). The note with it: 25° C., 30 minutes, histone H3-lysine 4 dimethyl peptide. Format: biochemical.

As usually defined, the melting point is the temperature of the solid-liquid transition. `CC(C)(C)c1ccc(C(=O)N[C@@H](CCCCNC2CC2c2ccccc2)C(=O)NCc2ccccc2)cc1` (stereo partly drawn) (as salt: hydrochloride) [Example 5, 2-[N-(4-tert-Butylbenzenecarbonyl)]amino-6-(trans-2-phenylcyclopropan-1-amino)-N-benzylhexanamide Hydrochloride] registered a melting point of 101 to 103 °C.
The molecule `O=C(N[C@@H](CCCCNC1CC1c1ccccc1)C(=O)NCc1ccccc1)c1ccc(Cl)cc1` (stereo partly drawn) (as salt: hydrochloride) [Example 6, 2-[N-(4-Chlorobenzenecarbonyl)]amino-6-(trans-2-phenylcyclopropan-1-amino)-N-benzylhexanamide Hydrochloride] returned a melting point of 107 to 109 °C.
In turn, `O=C(N[C@@H](CCCCNC1CC1c1ccccc1)C(=O)NCc1ccccc1)c1ccc(F)cc1` (stereo partly drawn) (as salt: hydrochloride) [Example 7, 2-[N-(4-Fluorobenzenecarbonyl)]amino-6-(trans-2-phenylcyclopropan-1-amino)-N-benzylhexanamide Hydrochloride] yielded a melting point of 90 to 91 °C.
One may read the GI50 as the concentration at which growth is held to half of that of the control. Take `NC1CC1c1ccccc1` (stereo not drawn) [Comp. Ex. 1, trans-2-Phenylcyclopropylamine, reference compound]: the concentration for 50% growth inhibition (GI50) was over 500 µM in the series on HeLa cells and 503 µM with SH-SY5Y cells.
Broadly, the IC50 is the concentration needed to halve the response being measured. A higher IC50 goes with lower potency. On LSD1, `CC(C)(C)OC(=O)N[C@@H](CCCCNC1CC1c1ccccc1)C(=O)NCc1ccccc1` (stereo partly drawn) [Example 2, 2-(N-tert-Butoxycarbonyl)amino-6-(trans-2-phenylcyclopropan-1-amino)-N-benzylhexanamide] came in with an IC50 of 1.2 µM.
Still for that read-out and setting: with `N[C@@H](CCCCNC1CC1c1ccccc1)C(=O)NCc1ccccc1` (stereo partly drawn) [Example 3, 2-Amino-6-(trans-2-phenylcyclopropan-1-amino)-N-benzylhexanamide Dihydrochloride] the figure was 0.06 µM.
Same read-out and setting: with `Cc1ccc(C(=O)N[C@@H](CCCCNC2CC2c2ccccc2)C(=O)NCc2ccccc2)cc1` (stereo partly drawn) [Example 4, 2-[N-(4-Methylbenzenecarbonyl)]amino-6-(trans-2-phenylcyclopropan-1-amino)-N-benzylhexanamide Trifluoroacetate] the figure was 0.44 µM.
Turning to `CC(C)(C)c1ccc(C(=O)N[C@@H](CCCCNC2CC2c2ccccc2)C(=O)NCc2ccccc2)cc1` (stereo partly drawn) [Example 5, 2-[N-(4-tert-Butylbenzenecarbonyl)]amino-6-(trans-2-phenylcyclopropan-1-amino)-N-benzylhexanamide Hydrochloride], the half-maximal inhibitory concentration (IC50) on LSD1 amounted to 0.79 µM. The figures for the GI50 in the series on HeLa cells and in the series with SH-SY5Y cells were 12 µM and 4.8 µM, respectively.
On to `O=C(N[C@@H](CCCCNC1CC1c1ccccc1)C(=O)NCc1ccccc1)c1ccc(Cl)cc1` (stereo partly drawn) [Example 6, 2-[N-(4-Chlorobenzenecarbonyl)]amino-6-(trans-2-phenylcyclopropan-1-amino)-N-benzylhexanamide Hydrochloride], for which 0.2 µM corresponded to half-maximal inhibition against LSD1 (IC50). The GI50 in the series on HeLa cells worked out at 13 µM; in the series on SH-SY5Y cells it was 11 µM.
`O=C(N[C@@H](CCCCNC1CC1c1ccccc1)C(=O)NCc1ccccc1)c1ccc(F)cc1` (stereo partly drawn) [Example 7, 2-[N-(4-Fluorobenzenecarbonyl)]amino-6-(trans-2-phenylcyclopropan-1-amino)-N-benzylhexanamide Hydrochloride] registered an IC50 against LSD1 of 0.25 µM.
At LSD1, `O=C(N[C@@H](CCCCNC1CC1c1ccccc1)C(=O)NCc1ccccc1)c1ccc(C(F)(F)F)cc1` (stereo partly drawn) [Example 9, 2-[N-(4-Trifluoromethylbenzenecarbonyl)]amino-6-(trans-2-phenylcyclopropan-1-amino)-N-benzylhexanamide Hydrochloride] gave an IC50 of 0.38 µM. In addition, the figures for the GI50 in the series with HeLa cells and in the series with SH-SY5Y cells were 13 µM and 5.4 µM, respectively.
At LSD1, `NCCNC(=O)c1cccc(C(=O)N[C@@H](CCCCNC2CC2c2ccccc2)C(=O)NCc2ccccc2)c1` (stereo partly drawn) [Example 10, 2-{3-[(2-Amino)ethylcarbamoyl]benzenecarbonylamino)-6-(trans-2-phenylcyclopropan-1-amino)-N-benzylhexanamide Ditrifluoroacetate] displayed a 50% inhibitory concentration (IC50) of 0.1 µM.
Same read-out and setting: with `O=C(N[C@@H](CCCCNC1CC1c1ccccc1)C(=O)NCc1ccccc1)c1cccc(C(=O)N2CCNCC2)c1` (stereo partly drawn) [Example 11, 2-[3-(Piperazine-1-carbonyl)benzenecarbonylamino}-6-(trans-2-phenylcyclopropan-1-amino)-N-benzylhexanamide Ditrifluoroacetate] the figure was 0.25 µM.
On LSD1, `Cc1ccc(CNC(=O)[C@H](CCCCNC2CC2c2ccccc2)NC(=O)c2ccc(-c3ccccc3)cc2)cc1` (stereo partly drawn) [Example 12, 2-[N-(4-Phenylbenzenecarbonyl)]amino-6-(trans-2-phenylcyclopropan-1-amino)-N-(4-methylbenzyl)hexanamide Hydrochloride] showed an IC50 of 0.6 µM. For the same molecule, the results for the GI50 with HeLa cells and with SH-SY5Y cells were 4.4 µM and 3.5 µM, respectively.
The corresponding values for `O=C(N[C@@H](CCCCNC1CC1c1ccccc1)C(=O)NCc1ccc(F)cc1)c1ccc(-c2ccccc2)cc1` (stereo partly drawn) [Example 13, 2-[N-(4-Phenylbenzenecarbonyl)]amino-6-(trans-2-phenylcyclopropan-1-amino)-N-(4-fluorobenzyl)hexanamide Hydrochloride] are 0.75 µM, 4.4 µM and 3.9 µM.
`O=C(N[C@@H](CCCCNC1CC1c1ccccc1)C(=O)NCc1ccc(-c2ccccc2)cc1)c1ccc(-c2ccccc2)cc1` (stereo partly drawn) [Example 14, 2-[N-(4-Phenylbenzenecarbonyl)]amino-6-(trans-2-phenylcyclopropan-1-amino)-N-(4-phenylbenzyl)hexanamide Hydrochloride] showed an IC50 at LSD1 of 2.7 µM. Also, the 50% growth inhibitory concentration (GI50) stood at 5.2 µM in the series on HeLa cells and 6.4 µM with SH-SY5Y cells.
For `CC(C)(C)c1ccc(CNC(=O)[C@H](CCCCNC2CC2c2ccccc2)NC(=O)c2ccc(-c3ccccc3)cc2)cc1` (stereo partly drawn) [Example 15, 2-[N-(4-Phenylbenzenecarbonyl)]amino-6-(trans-2-phenylcyclopropan-1-amino)-N-(4-tert-butylbenzyl)hexanamide Trifluoroacetate], in that order: 1.2 µM, 4 µM and 2.7 µM.
The corresponding values for `Cc1cccc(CNC(=O)[C@H](CCCCNC2CC2c2ccccc2)NC(=O)c2ccc(-c3ccccc3)cc2)c1` (stereo partly drawn) [Example 16, 2-[N-(4-Phenylbenzenecarbonyl)]amino-6-(trans-2-phenylcyclopropan-1-amino)-N-(3-methylbenzyl)hexanamide Hydrochloride] are 0.68 µM, 4.2 µM and 2.3 µM.
`O=C(N[C@@H](CCCCNC1CC1c1ccccc1)C(=O)NCc1cccc(F)c1)c1ccc(-c2ccccc2)cc1` (stereo partly drawn) [Example 17, 2-[N-(4-Phenylbenzenecarbonyl)]amino-6-(trans-2-phenylcyclopropan-1-amino)-N-(3-fluorobenzyl)hexanamide Hydrochloride] gave an IC50 against LSD1 of 0.67 µM. Moreover, the GI50 was determined as 10.9 µM in the series on HeLa cells and 4.1 µM in the series on SH-SY5Y cells.
Take `O=C(N[C@@H](CCCCNC1CC1c1ccccc1)C(=O)NCc1cccc(-c2ccccc2)c1)c1ccc(-c2ccccc2)cc1` (stereo partly drawn) [Example 18, 2-[N-(4-Phenylbenzenecarbonyl)]amino-6-(trans-2-phenylcyclopropan-1-amino)-N-(3-phenylbenzyl)hexanamide Hydrochloride]: the IC50 at LSD1 was 0.98 µM. Moreover, the GI50 with HeLa cells amounted to 9.7 µM; with SH-SY5Y cells, 3.8 µM.
